Data taken from patent publication US6284785A, “1-arenesulfonyl-2-aryl-pyrrolidine and pyridine derivatives” (Hoffmann- La Roche Inc., priority 1999, dated 2001).

Molecular target: T1, rat mGlu 1a receptor (Rattus norvegicus, UniProt P23385)
T1 construct: expressed in transfected cells; host or cells: EBNA cells (transient transfection)
Experiment: [Ca2+]i measurements (FLIPR, Fluo-3 AM) on mGlu 1a transfected EBNA cells; agonist or antagonist (against 10 μM glutamate)
Assay type: cell-based
Details: for Remarks (agonist / antagonist): table of substituents of the Examples, column Remarks; for agonist/antagonist: activity-data table; for IC50: antagonist, tested against 10 μM glutamate as agonist, read-out: IC50 (compounds marked antagonist)
Description: cDNA encoding rat mGlu 1a receptor obtained from Prof. Nakanishi (Kyoto, Japan) was transiently tranfected into EBNA cells using a procedure described by Schlaeger et. al, New Dev. New Appl. Anim Cell Techn., Proc. ESACT Meet., 15th (1998), 105-112 and 117-120. [Ca^2+ ]i measurements were performed on mGlu 1a transfected EBNA cells after incubation of the cells with Fluo-3 AM (0.5 μM final concentration) for 1hour at 37° C. followed by 4 washes with assay buffer (DMEM supplemented with Hank's salt and 20 mM HEPES. [Ca^2+ ]i measurements were done using a fluorometric imaging plate reader (FLIPR, Molecular Devices Corporation, La Jolla, Calif. USA). When compounds were evaluated as antagonists they were tested against 10 μM glutamate as agonist.
The inhibition (antagonists) or activation (agonists) curves were fitted with a four parameter logistic equation giving EC50, IC50, and Hill coefficient using the iterative non linear curve fitting software Origin (Microcal Software Inc., Northampton, Mass., USA).

T1 sequence (P23385 19-1199): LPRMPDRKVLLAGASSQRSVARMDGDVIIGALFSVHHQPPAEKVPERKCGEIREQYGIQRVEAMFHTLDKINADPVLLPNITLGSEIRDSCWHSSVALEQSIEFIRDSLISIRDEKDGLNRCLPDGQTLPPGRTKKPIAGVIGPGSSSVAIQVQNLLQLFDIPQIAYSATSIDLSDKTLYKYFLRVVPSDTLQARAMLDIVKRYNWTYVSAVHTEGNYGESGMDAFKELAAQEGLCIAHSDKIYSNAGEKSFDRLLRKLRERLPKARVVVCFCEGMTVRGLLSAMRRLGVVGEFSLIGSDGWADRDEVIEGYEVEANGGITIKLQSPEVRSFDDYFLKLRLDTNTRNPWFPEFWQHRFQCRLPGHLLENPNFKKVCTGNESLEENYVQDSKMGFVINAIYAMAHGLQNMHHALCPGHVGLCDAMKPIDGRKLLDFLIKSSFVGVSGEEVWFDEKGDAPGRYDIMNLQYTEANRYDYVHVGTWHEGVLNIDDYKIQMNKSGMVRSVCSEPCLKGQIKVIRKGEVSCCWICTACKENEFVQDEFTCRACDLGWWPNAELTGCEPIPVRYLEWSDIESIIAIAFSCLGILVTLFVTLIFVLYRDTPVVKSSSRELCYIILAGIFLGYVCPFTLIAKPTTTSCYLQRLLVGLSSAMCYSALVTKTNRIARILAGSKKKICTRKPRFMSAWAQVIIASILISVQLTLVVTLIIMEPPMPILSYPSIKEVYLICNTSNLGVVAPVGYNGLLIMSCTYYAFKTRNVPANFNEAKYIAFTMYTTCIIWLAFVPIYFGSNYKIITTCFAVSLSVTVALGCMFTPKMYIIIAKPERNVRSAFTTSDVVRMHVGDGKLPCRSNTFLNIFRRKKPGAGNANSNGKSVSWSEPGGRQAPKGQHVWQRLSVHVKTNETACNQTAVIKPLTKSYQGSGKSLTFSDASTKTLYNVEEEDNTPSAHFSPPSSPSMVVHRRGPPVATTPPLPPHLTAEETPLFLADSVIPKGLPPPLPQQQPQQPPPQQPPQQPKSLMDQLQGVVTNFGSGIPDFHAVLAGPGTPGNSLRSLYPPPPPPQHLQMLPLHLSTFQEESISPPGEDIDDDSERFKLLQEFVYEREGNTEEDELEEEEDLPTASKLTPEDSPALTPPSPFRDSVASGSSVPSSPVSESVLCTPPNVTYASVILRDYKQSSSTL

| Compound | agonistic / antagonistic activity to the mGlu receptor | Remarks (agonist / antagonist) | agonist/antagonist | IC50 |
| --- | --- | --- | --- | --- |
| O=S(=O)(c1ccc(Cl)cc1)N1CCCC1c1ccccc1 (racemic) [Example 6, (RS)-1-(4-Chloro-benzenesulfonyl)-2-phenyl-pyrrolidine] | agonistic activty | Agonist |  |  |
| CC(C)c1ccc(S(=O)(=O)N2CCCC2c2ccc(F)cc2)cc1 (racemic) [Example 22, (RS)-2-(4-Fluoro-phenyl)-1-(4-isopropyl-benzenesulfonyl)-pyrrolidine] |  | Antagonist |  |  |
| COc1ccc(C2CCCN2S(=O)(=O)c2ccc(C)cc2)cc1 (racemic) [Example 25, (RS)-2-(4-Methoxy-phenyl)-1-(toluene-4-sulfonyl)-pyrrolidine] | agonistic activty | Agonist |  |  |
| O=S(=O)(c1cccc(F)c1)N1CCCC1c1ccc(F)cc1 (racemic) [Example 64, (RS)-1-(3-Fluoro-benzenesulfonyl)-2-(4-fluoro-phenyl)-pyrrolidine] |  | Antagonist |  |  |
| Cc1ccc(S(=O)(=O)N2CCCC2c2ccc(N(C)C)cc2)cc1 (racemic) [Example 72, (RS)-2-(4-N,N-Dimethylamino-phenyl)-1-(toluene-4-sulfonyl)-pyrrolidine] | agonistic activty | Agonist |  |  |
| COCc1ccc(S(=O)(=O)N2CCCC2c2ccc(F)cc2)cc1 (racemic) [Example 85, (RS)-2-(4-Fluoro-phenyl)-1-(4-methoxymethyl-benzenesulfonyl)-pyrrolidine] | agonistic activty | Agonist |  |  |
| O=S(=O)(c1ccc(Cl)cc1)N1CCCC1c1ccncc1 (racemic) [Example 14, (RS)-4-1-(4-Chloro-benzenesulfonyl)-pyrrolidine-pyridine] |  | Agonist |  |  |
| Cc1ccc(S(=O)(=O)N2CCC[C@H]2c2ccc(F)cc2)cc1 [Example 82, (S)-2-(4-Fluoro-phenyl)-1-(toluene-4-sulfonyl)-pyrrolidine] | agonistic activty | Agonist |  |  |
| O=S(=O)(c1ccc(Cl)cc1)N1CCCC1c1ccc(F)c(Cl)c1 (racemic) [Example 43, (RS)-1-(4-Chloro-benzenesulfonyl)-2-(3-chloro-4-fluoro-phenyl)-pyrrolidine] |  | Antagonist |  |  |
| O=S(=O)(c1ccc(Cl)cc1)N1CCCC1c1ccsc1 (racemic) [Example 56, (RS)-1-(4-Chloro-benzenesulfonyl)-2-thien-3-yl-pyrrolidine] | agonistic activty | Agonist |  |  |
| CN(C)c1ccc(C2CCCN2S(=O)(=O)c2ccc(F)cc2)cc1 (racemic) [Example 73, (RS)-2-(4-N,N-Dimethylamino-phenyl)-1-(4-fluoro-benzenesulfonyl)-pyrrolidine] |  | Antagonist |  |  |
| O=C(O)/C=C/C(=O)O.O=S(=O)(c1ccc(CN2CCOCC2)cc1)N1CCCC1c1ccc(F)cc1 (racemic) [Example 86, (RS)-4-{4-[2-(4-Fluoro-phenyl)-pyrrolidine-1-sulfonyl]-benzyl}-morpholine fumarate (1:1)] |  | Antagonist |  |  |
| N#Cc1ccccc1S(=O)(=O)N1CCCC1c1ccc(F)cc1 (racemic) [Example 65, (RS)-1-(2-Cyano-benzenesulfonyl)-2-(4-fluoro-phenyl)-pyrrolidine] |  | Antagonist |  |  |
| Cc1ccc(C2CCCN2S(=O)(=O)c2ccc(Cl)cc2)cc1 (racemic) [Example 20, (RS)-1-(4-Chloro-benzenesulfonyl)-2-p-tolyl-pyrrolidine] |  | Antagonist |  |  |
| O=S(=O)(c1ccc(F)cc1)N1CCCC1c1ccc(F)cc1 (racemic) [Example 16, (RS)-1-(4-Fluoro-benzenesulfonyl)-2-(4-fluoro-phenyl)-pyrrolidine] | agonistic activty | Agonist |  |  |
| Cc1ccccc1S(=O)(=O)N1CCCC1c1ccc(F)cc1 (racemic) [Example 18, (RS)-2-(4-Fluoro-phenyl)-1-(toluene-2-sulfonyl)-pyrrolidine] |  | Antagonist | antagonist | 1.37 µM |
| CCc1ccc(C2CCCN2S(=O)(=O)c2ccc(F)cc2)cc1 (racemic) [Example 80, (RS)-2-(4-Ethyl-phenyl)-1-(4-fluoro-benzenesulfonyl)-pyrrolidine] |  | Antagonist |  |  |
| O=S(=O)(c1ccc(CO)cc1)N1CCCC1c1ccc(F)cc1 (racemic) [Example 84, (RS)-2-(4-Fluoro-phenyl)-1-(4-hydroxymethyl-benzenesulfonyl)-pyrrolidine] | agonistic activty | Agonist |  |  |
| Cc1ccc(S(=O)(=O)N2CCCC2c2ccc(C(F)(F)F)cc2)cc1 (racemic) [Example 48, (RS)-1-(Toluene-4-sulfonyl)-2-(4-trifluoromethyl-phenyl)-pyrrolidine] | agonistic activty | Agonist |  |  |
| Cc1ccc(C2CCCN2S(=O)(=O)c2ccc(F)cc2)cc1 (racemic) [Example 23, (RS)-1-(4-Fluoro-benzenesulfonyl)-2-p-tolyl-pyrrolidine] |  | Antagonist |  |  |
| CCc1ccc(S(=O)(=O)N2CCCC2c2ccc(F)cc2)cc1 (racemic) [Example 21, (RS)-1-(4-Ethyl-benzenesulfonyl)-2-(4-fluoro-Rhenyl)-pyrrolidine] | agonistic activty | Agonist |  |  |
| O=S(=O)(c1ccccc1)N1CCCC1c1ccc(F)cc1 (racemic) [Example 7, (RS)-1-Benzenesulfonyl-2-(4-fluoro-phenyl)-pyrrolidine] |  | Antagonist | antagonist | 8 µM |
| O=S(=O)(c1ccc(Cl)cc1)N1CCCC1c1cccs1 (racemic) [Example 36, (RS)-1-(4-Chloro-benzenesulfonyl)-2-thien-2-yl-pyrrolidine] |  | Antagonist | antagonist | 0.56 µM |
| Cc1ccc(S(=O)(=O)N2CCCC2c2ccc(C)cc2C)cc1 (racemic) [Example 67, (RS)-2-(2,4-Dimethyl-phenyl)-1-(toluene-4-sulfonyl)-pyrrolidine] |  | Antagonist |  |  |
| O=S(=O)(c1ccc(Cl)cc1)N1CCCC1c1cccc(F)c1 (racemic) [Example 2, (RS)-1-(4-Chloro-benzenesulfonyl)-2-(3-fluoro-phenyl)-pyrrolidine] |  | Agonist |  |  |
| O=S(=O)(c1ccc(Cl)cc1)N1CCCC1c1ccco1 (racemic) [Example 71, (RS)-1-(4-Chloro-benzenesulfonyl)-2-furan-2-yl-pyrrolidine] |  | Antagonist |  |  |
